These results are taken from article PMC11946789, “Two Amino Acid Substitutions Improve the Pharmacological Profile of the Snake Venom Peptide Mambalgin” (Toxins, 2025).

“Also recorded” adds a separate entry of the source. Bridges are numbered along the chain shown (N, C = ends). Where no end group is shown, it is not given here.

For this test, the target named is T1, homomeric rat ASIC1b (rASIC1b) (Rattus norvegicus, UniProt P55926).
T1 construct: expressed in transfected cells; host or cells: Xenopus laevis oocytes, mRNA microinjected
T1 sequence (P55926 1-559 isoform P55926-3): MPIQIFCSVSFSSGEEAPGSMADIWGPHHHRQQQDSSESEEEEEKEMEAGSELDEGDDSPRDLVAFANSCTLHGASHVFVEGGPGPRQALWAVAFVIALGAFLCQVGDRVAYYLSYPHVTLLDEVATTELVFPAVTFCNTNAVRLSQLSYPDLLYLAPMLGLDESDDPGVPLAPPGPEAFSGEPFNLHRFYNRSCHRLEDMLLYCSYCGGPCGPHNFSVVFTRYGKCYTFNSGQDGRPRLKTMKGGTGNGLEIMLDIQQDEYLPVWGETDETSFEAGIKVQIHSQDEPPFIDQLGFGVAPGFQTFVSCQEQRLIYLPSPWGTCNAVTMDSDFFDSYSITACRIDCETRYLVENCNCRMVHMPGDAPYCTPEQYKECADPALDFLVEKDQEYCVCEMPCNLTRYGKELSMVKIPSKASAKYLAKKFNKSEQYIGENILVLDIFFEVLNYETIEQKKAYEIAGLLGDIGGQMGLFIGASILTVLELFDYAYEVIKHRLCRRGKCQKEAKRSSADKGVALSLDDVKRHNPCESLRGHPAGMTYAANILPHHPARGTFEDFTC
In words: TEVC recordings, homomeric rASIC1b. The format is cell-based. The text has this:
Figure 4 The inhibitory effect of Mamb-AL on other ASIC1-containing channels exceeds that of Mamb. (A,C) Representative current traces showing the effects of various concentrations of Mamb (left panels) and Mamb-AL (right panels) on homomeric rat ASIC1b (rASIC1b) (A) and heteromeric rat ASIC1a/3 (rASIC1a/3) channels (C). Currents were evoked by a pH 5.5 stimulus following a conditioning pH of 7.4, with peptides applied for 30 s prior to the pH stimulus. (B) Dose–response curves for the inhibitory effects of Mamb and Mamb-AL on rASIC1b. Each data point represents measurements from 5 to 7 cells. (D) Bar graph quantifying the inhibitory effects of Mamb and Mamb-AL on rASIC1a/3, shown as a percentage of the corresponding control currents (n = 5). Data are presented as mean ± SEM; * p< 0.05, unpaired t-test. […] Data are shown as mean ± SEM; ns indicates no significant difference vs. control (dotted horizontal line), paired t-test. […]
Whole-cell ASIC currents were measured using the two-electrode voltage clamp (TEVC) method with a GeneClamp 500 amplifier (Axon Instruments, Union City, NJ, USA). […]
Electrophysiological and behavioral data were analyzed using OriginPro 8.6.0 (OriginLab, Washington, DC, USA). […] Statistical significance between the Mamb and Mamb-AL groups was determined using an unpaired t-test. […]

Take “LKCYQHGKVVTCHRDAKFCYHNTGLPFRNLKLILQGCSSSCSETENNKCCSTDRCNK (disulfide 3-19, 12-37, 41-49, 50-55 (inferred)) [Mamb-AL]”: the “greater potency / inhibition of rASIC1b” value (compared with Mamb) is on record as “five-fold; also recorded: five times greater potency”. Further, under “pH stimulus 5.5, conditioning pH 7.4, peptide applied 30 s before stimulus, Xenopus laevis oocytes, mean ± SEM, 5 to 7 cells”, it took 22 ± 1 nM to reach half-maximal inhibition (IC50).
